Measurements taken from patent US9573954B2, “Pyrazolopyrimidine compounds” (University Health Network, priority 2012, dated 2017).
Read-outs that look alike come from different tables or passages of the source.

Biological target: T1, human TTK (Homo sapiens, UniProt P33981)
T1 construct: Active TTK was purchased from Invitrogen as an amino terminal GST fusion of full length human TTK; purchased Invitrogen
T1 sequence (P33981 1-857): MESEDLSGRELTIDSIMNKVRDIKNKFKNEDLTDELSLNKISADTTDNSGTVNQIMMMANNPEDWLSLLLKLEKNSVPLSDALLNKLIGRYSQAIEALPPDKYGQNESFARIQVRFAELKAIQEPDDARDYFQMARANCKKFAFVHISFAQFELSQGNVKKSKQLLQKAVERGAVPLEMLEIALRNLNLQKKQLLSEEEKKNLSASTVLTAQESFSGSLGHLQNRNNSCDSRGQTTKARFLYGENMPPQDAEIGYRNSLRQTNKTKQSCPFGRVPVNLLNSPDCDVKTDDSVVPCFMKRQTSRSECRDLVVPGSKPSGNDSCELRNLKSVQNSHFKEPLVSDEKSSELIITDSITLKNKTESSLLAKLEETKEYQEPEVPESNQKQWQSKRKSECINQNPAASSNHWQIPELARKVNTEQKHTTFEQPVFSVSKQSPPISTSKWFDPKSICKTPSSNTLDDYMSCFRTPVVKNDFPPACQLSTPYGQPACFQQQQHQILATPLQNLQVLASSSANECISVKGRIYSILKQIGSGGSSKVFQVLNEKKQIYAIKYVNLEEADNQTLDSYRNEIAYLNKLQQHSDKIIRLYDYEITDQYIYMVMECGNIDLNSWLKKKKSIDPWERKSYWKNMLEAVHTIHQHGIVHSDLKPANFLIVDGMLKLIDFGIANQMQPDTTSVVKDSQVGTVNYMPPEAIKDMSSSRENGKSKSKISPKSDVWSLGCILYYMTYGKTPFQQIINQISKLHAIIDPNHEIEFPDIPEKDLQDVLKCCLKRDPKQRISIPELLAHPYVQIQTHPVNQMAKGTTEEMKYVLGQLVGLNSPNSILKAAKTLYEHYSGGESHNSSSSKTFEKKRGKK
Assay: TTK inhibition assay (indirect ELISA)
Type: biochemical
Procedure: Active TTK was purchased from Invitrogen as an amino terminal GST fusion of full length human TTK.
TTK activity was measured using an indirect ELISA detection system.
Compounds were pre-incubated in the presence of enzyme for 5 minutes prior to addition of ATP and the activity remaining quantified using the above described activity assay. The % Inhibition of a compound was determined using the following formula; % Inhibition=100×(1−(experimental value−background value)/(high activity control−background value)). The IC50 value was determined using a non-linear 4 point logistic curve fit (XLfit4, IDBS) with the formula; (A+(B/(1+((x/C)^D)))), where A=background value, B=range, C=inflection point, D=curve fit parameter.

[1] = Table 1, 16 μM ATP (asterisk), read-out: TTK IC50 Range
[2] = Table 2, 16 μM ATP (asterisk), read-out: TTK IC50 Range
[3] = 16 μM ATP (Sigma cat# A7699), read-out: TTK IC50 Range (denoted with an asterisk)
[4] = 100 μM ATP, read-out: TTK IC50 Range

Row | IC50 [4] [nM] | SMILES | also measured
1 |  | Cc1cc(-c2cnn3c(NCC4CCOCC4)nc(N(C)C)nc23)ccc1C(=O)NC1CC1 [Example A1, N-Cyclopropyl-4-(2-(dimethylamino)-4-(((tetrahydro-2H-pyran-4-yl)methyl)amino)pyrazolo[1,5-a][1,3,5]triazin-8-yl)-2-methylbenzamide] | IC50 [1]: 100 to 500 nM
2 |  | O=C(NC1CC1)c1ccc(-c2cnn3c(NCCN4CCOCC4)nc(N4CCC(O)CC4)nc23)cc1 [Example A9, N-cyclopropyl-4-(2-(4-hydroxypiperidin-1-yl)-4-((2-morpholinoethyl)amino)pyrazolo[1,5-a][1,3,5]triazin-8-yl)benzamide] | IC50 [1]: > 500 nM
3 |  | COCCNc1cc(Oc2cccnc2)nc2c(-c3ccc(C(=O)NC4CC4)cc3)cnn12 [Example B4, N-cyclopropyl-4-(7-((2-methoxyethyl)amino)-5-(pyridin-3-yloxy)pyrazolo[1,5-a]pyrimidin-3-yl)benzamide] | IC50 [2]: < 100 nM
4 |  | Cc1cc(-c2cnn3c(NCC4CCOCC4)cc(NC4CCCC4)nc23)ccc1NC(=O)C1CC1 [Example B15, N-(4-(5-(cyclopentylamino)-7-(((tetrahydro-2H-pyran-4-yl)methyl)amino)pyrazolo[1,5-a]pyrimidin-3-yl)-2-methylphenyl)cyclopropanecarboxamide] | IC50 [2]: > 500 nM
5 |  | Cc1cc(-c2cnn3c(NCC(C)(C)O)cc(Oc4ccccc4)nc23)ccc1C(=O)NC1CC1 [Example B27, N-cyclopropyl-4-(7-((2-hydroxy-2-methylpropyl)amino)-5-phenoxypyrazolo[1,5-a]pyrimidin-3-yl)-2-methylbenzamide] | IC50 [2]: < 100 nM
6 |  | Cc1cc(-c2cnn3c(NCC(C)(C)O)cc(Oc4cccnc4)nc23)ccc1C(=O)NC1CC1 [Example B28, N-cyclopropyl-4-(7-((2-hydroxy-2-methylpropyl)amino)-5-(pyridin-3-yloxy)pyrazolo[1,5-a]pyrimidin-3-yl)-2-methylbenzamide] | IC50 [2]: < 100 nM
7 |  | CC[C@H](Nc1cc(NCC2CCOCC2)n2ncc(-c3ccc(C(=O)NC4CC4)c(C)c3)c2n1)[C@H](C)O [Example B30, N-cyclopropyl-4-(5-(((2S,3S)-2-hydroxypentan-3-yl)amino)-7-(((tetrahydro-2H-pyran-4-yl)methyl)amino)pyrazolo[1,5-a]pyrimidin-3-yl)-2-methylbenzamide] | IC50 [2]: < 100 nM
8 |  | Cc1cc(-c2cnn3c(NCC(C)(C)O)cc(NC4CCOCC4)nc23)ccc1C(=O)NC1CC1 [Example B32, N-cyclopropyl-4-(7-((2-hydroxy-2-methylpropyl)amino)-5-((tetrahydro-2H-pyran-4-yl)amino)pyrazolo[1,5-a]pyrimidin-3-yl)-2-methylbenzamide] | IC50 [2]: < 100 nM
9 |  | Cc1cc(-c2cnn3c(NC[C@H]4CC[C@H](O)CC4)cc(NC4CCOCC4)nc23)ccc1C(=O)NC1CC1 [Example B33, N-cyclopropyl-4-(7-((((1r,4r)-4-hydroxycyclohexyl)-methyl)amino)-5-((tetrahydro-2H-pyran-4-yl)amino)pyrazolo[1,5-a]pyrimidin-3-yl)-2-methylbenzamide] | IC50 [2]: < 100 nM
10 |  | O=C(NC1CC1)c1ccc(-c2cnn3c(NCCCN4CCOCC4)nc(Oc4ccccc4)nc23)cc1 [Example C1, N-cyclopropyl-4-(4-((3-morpholinopropyl)amino)-2-phenoxypyrazolo[1,5-a][1,3,5]triazin-8-yl)benzamide] | IC50 [3]: < 100 nM
11 |  | CC(C)NC(=O)c1ccc(-c2cnn3c(NCC4CCOCC4)nc(Oc4ccccc4)nc23)cc1 [Example C2] | IC50 [3]: 100 to 500 nM
12 |  | CC(C)C(=O)Nc1ccc(-c2cnn3c(NCC4CCOCC4)nc(Oc4ccccc4)nc23)cc1 [Example C3] | IC50 [3]: > 500 nM
13 |  | CC(C)NC(=O)c1ccc(-c2cnn3c(NCC4CCOCC4)nc(OC4CCCC4)nc23)cc1 [Example C4] | IC50 [3]: 100 to 500 nM
14 |  | COCCNc1nc(Oc2ccccc2)nc2c(-c3ccc(C(=O)NC4CC4)cc3)cnn12 [Example C6] | IC50 [3]: < 100 nM
15 |  | CN(c1nc(NCC2CCOCC2)n2ncc(-c3ccc(C(=O)NC4CC4)c(F)c3)c2n1)C1CCCCC1 [Example C15] | IC50 [3]: < 100 nM
16 |  | O=C(NC1CC1)c1ccc(-c2cnn3c(NCC4CCOCC4)nc(N4CCCCC4)nc23)cc1Cl [Example C16] | IC50 [3]: < 100 nM
17 |  | Cc1cc(-c2cnn3c(NCC4CCOCC4)nc(Oc4ccccc4)nc23)ccc1NC(=O)C1CC1 [Example C17] | IC50 [3]: > 500 nM
18 |  | Cc1cc(-c2cnn3c(NCC4CCOCC4)nc(NC4CCCC4)nc23)ccc1NC(=O)C1CC1 [Example C18] | IC50 [3]: > 500 nM
19 | < 100 | Cc1cc(-c2cnn3c(NCC4CCOCC4)cc(NC[C@@H]4CCCO4)nc23)ccc1C(=O)NC1CC1 [Example C29, (S)-N-cyclopropyl-2-methyl-4-(7-(((tetrahydro-2H-pyran-4-yl)methyl)amino)-5-(((tetrahydrofuran-2-yl)methyl)amino)pyrazolo[1,5-a]pyrimidin-3-yl)benzamide] | 
20 | > 500 | Cc1cc(-c2cnn3c(NCC4CCOCC4)cc(Oc4ccncc4)nc23)ccc1C(=O)NC1CC1 [Example C50] | 
21 | < 100 | Cc1cc(-c2cnn3c(NCCN4CCOCC4)cc(NC4CCOCC4)nc23)ccc1C(=O)NC1CC1 [Example C53] | 
22 | < 100 | Cc1cc(-c2cnn3c(NCCN4CCOCC4)cc(Nc4ccccc4)nc23)ccc1C(=O)NC1CC1 [Example C60] | 

Row | IC50 [4] [nM] | SMILES | also measured
23 | < 100 | Cc1cc(-c2cnn3c(NC[C@H]4CCCO4)cc(NC4CCOCC4)nc23)ccc1C(=O)NC1CC1 [Example C63] | 
24 | < 100 | Cc1cc(-c2cnn3c(NC[C@@H]4CCCO4)cc(NC4CCCC4)nc23)ccc1C(=O)NC1CC1 [Example C64] | 
25 | < 100 | Cc1cc(-c2cnn3c(NC[C@@H]4CCCO4)cc(NC4CCOCC4)nc23)ccc1C(=O)NC1CC1 [Example C65] | 
26 | < 100 | Cc1cc(-c2cnn3c(NCC4CCOCC4)cc(N4CCC(O)CC4)nc23)ccc1C(=O)NC1CC1 [Example C67] | 
27 | 100 to 500 | Cc1cc(-c2cnn3c(NCC4CCOCC4)cc(N4CC(O)C4)nc23)ccc1C(=O)NC1CC1 [Example C69] | 
28 | < 100 | Cc1cc(-c2cnn3c(NCCCn4ccnc4)cc(NC4CCCC4)nc23)ccc1C(=O)NC1CC1 [Example C70] | 
29 | < 100 | Cc1cc(-c2cnn3c(NCC4CCOCC4)cc(NCc4ccccn4)nc23)ccc1C(=O)NC1CC1 [Example C73] | 
30 | < 100 | Cc1cc(-c2cnn3c(NCCN4CCOCC4)cc(NCc4cccnc4)nc23)ccc1C(=O)NC1CC1 [Example C75] | 
31 | < 100 | Cc1cc(-c2cnn3c(NCCN4CCOCC4)cc(NCC4CC4)nc23)ccc1C(=O)NC1CC1 [Example C76] | 
32 | < 100 | COCCNc1cc(NC2CCCC2)nc2c(-c3ccc(C(=O)NC4CC4)c(C)c3)cnn12 [Example C80] | 
33 | < 100 | Cc1cc(-c2cnn3c(NCCO)cc(NC4CCCC4)nc23)ccc1C(=O)NC1CC1 [Example C81] | 
34 | < 100 | CC(=O)N1CCN(c2cc(NCC3CCOCC3)n3ncc(-c4ccc(C(=O)NC5CC5)c(C)c4)c3n2)CC1 [Example C84] | 
35 | 100 to 500 | Cc1cc(-c2cnn3c(NCCN4CCOCC4)cc(Oc4cccc(S(C)(=O)=O)c4)nc23)ccc1C(=O)NC1CC1 [Example C86] | 
36 | < 100 | Cc1cc(-c2cnn3c(NCCN4CCOCC4)cc(Oc4cccc(N5CCOCC5)c4)nc23)ccc1C(=O)NC1CC1 [Example C91] | 
37 | < 100 | Cc1cc(-c2cnn3c(NCC4(CO)CCOCC4)cc(NC4CCOCC4)nc23)ccc1C(=O)NC1CC1 [Example C93] | 
38 | 100 to 500 | Cc1cc(-c2cnn3c(NCCN4CCOCC4)cc(OC4COC4)nc23)ccc1C(=O)NC1CC1 [Example C101] | 
39 | < 100 | Cc1cc(-c2cnn3c(NCC4CCOCC4)cc(NC4COC4)nc23)ccc1C(=O)NC1CC1 [Example C102] | 
40 | 100 to 500 | Cc1cc(-c2cnn3c(NCC4(N(C)C)CCOCC4)cc(Oc4ccccc4)nc23)ccc1C(=O)NC1CC1 [Example C106] | 
41 | < 100 | Cc1cc(-c2cnn3c(NCC4CCOCC4)cc(NC(CO)CO)nc23)ccc1C(=O)NC1CC1 [Example C110] | 
42 | < 100 | Cc1cc(-c2cnn3c(NCC4CCOCC4)cc(OC4CCN(C5COC5)CC4)nc23)ccc1C(=O)NC1CC1 [Example C115] | 
43 | < 100 | Cc1cc(-c2cnn3c(NCC4CCOCC4)cc(OCCN4CCOCC4)nc23)ccc1C(=O)NC1CC1 [Example C117] | 

Row | SMILES | IC50 [4] [nM] | also measured
44 | Cc1cc(-c2cnn3c(NCC4CCOCC4)cc(N4C5CCC4COC5)nc23)ccc1C(=O)NC1CC1 [Example C112] | < 100 | 
